The experiment concerns the target T1, recombinant human mGluR2 (Homo sapiens, UniProt Q14416).
T1 construct: expressed in transfected cells
Kind of experiment: FLIPR assay (Ca2+ mobilization), potentiation of the mGluR2 receptor. The class given is cell-based. The settings on record: CHO dhfr- cells expressing human mGluR2 and Gα16; potentiation after EC20 glutamate (900 nM). On the procedure:
Inhibition constants are determined as follows. The compounds of the present invention may be tested in a […] (FLIPR) based assay. This assay is a common functional assay to monitor Ca^2+ mobilization in whole cells expressing recombinant receptor coupled with a promiscuous G-protein. CHO dhfr-cells stably expressing recombinant human mGluR2 and Gα16 loaded with Fluo-4 AM (Invitrogen, Carlsbad Calif.) are treated with dose responses of compounds and the Ca^2+ response is monitored on a FLIPR384 (Molecular Devices, Sunnydale Calif.) for agonist activity. The potentiation response is monitored after a subsequent addition of an EC20 concentration of glutamate (900 nM). The maximum calcium response at each concentration of compound for agonist or potentiation are plotted as dose responses and the curves are fitted with a four parameters logistic equation giving EC50 and Hill coefficient using the iterative non linear curve fitting software program.
(Calcium assays in cells follow changes in intracellular calcium, usually with a dye or a luminescent sensor.)

A word on the pEC50: it is the negative decadic logarithm of the EC50, by convention in mol/L.

pEC50: −log10 of the molar value.

T1 sequence (Q14416 19-872): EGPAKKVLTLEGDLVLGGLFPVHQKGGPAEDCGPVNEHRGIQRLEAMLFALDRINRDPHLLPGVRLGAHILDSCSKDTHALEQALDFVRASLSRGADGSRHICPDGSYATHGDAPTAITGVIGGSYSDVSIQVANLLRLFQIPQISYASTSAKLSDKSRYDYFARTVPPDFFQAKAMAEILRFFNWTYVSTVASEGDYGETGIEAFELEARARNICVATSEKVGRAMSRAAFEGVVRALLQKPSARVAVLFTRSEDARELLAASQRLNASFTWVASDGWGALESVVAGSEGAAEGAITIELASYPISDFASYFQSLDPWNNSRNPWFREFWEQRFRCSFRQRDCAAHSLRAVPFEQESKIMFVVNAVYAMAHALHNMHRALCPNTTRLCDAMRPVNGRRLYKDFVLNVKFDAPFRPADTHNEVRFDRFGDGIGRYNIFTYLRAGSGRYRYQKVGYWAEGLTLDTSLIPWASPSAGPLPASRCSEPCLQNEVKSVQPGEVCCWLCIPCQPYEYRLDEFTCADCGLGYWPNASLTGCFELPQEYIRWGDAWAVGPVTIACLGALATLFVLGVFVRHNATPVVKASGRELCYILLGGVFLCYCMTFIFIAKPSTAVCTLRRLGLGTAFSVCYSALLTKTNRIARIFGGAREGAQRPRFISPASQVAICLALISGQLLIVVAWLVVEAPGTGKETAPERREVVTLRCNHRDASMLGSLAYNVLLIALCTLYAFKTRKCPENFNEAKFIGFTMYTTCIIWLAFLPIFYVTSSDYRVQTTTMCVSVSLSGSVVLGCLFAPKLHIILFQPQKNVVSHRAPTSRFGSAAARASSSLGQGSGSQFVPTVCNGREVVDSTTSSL

Take `CC(C)(C)c1ccc(OC[C@@H]2Cn3c(nc4ccccc43)O2)cc1` [Example 1-4, (2S)-2-[(4-tert-butylphenoxy)methyl]-2,3-dihydro[1,3]oxazolo[3,2-a]benzimidazole]: the negative logarithm of the EC50 (pEC50) was 7.96.
To `CC(=O)c1cccc(OC[C@@H]2Cn3c(nc4ccccc43)O2)c1` [Example 1-5, 1-{3-[(2S)-2,3-dihydro[1,3]oxazolo[3,2-a]benzimidazol-2-ylmethoxy]phenyl}ethanone] belongs 6.28; to `Cn1nccc1-c1ccc(OC[C@@H]2Cn3c(nc4ccccc43)O2)cc1` [Example 2-1, (2S)-2-{[4-(1-methyl-1H-pyrazol-5-yl)phenoxy]methyl}-2,3-dihydro[1,3]oxazolo[3,2-a]benzimidazole], 6.86; to `CC(C)(c1ccc(OC[C@@H]2Cn3c(nc4ccccc43)O2)cc1)C(F)(F)F` [Example 3-5, (2S)-2-{[4-(2,2,2-trifluoro-1,1-dimethylethyl)phenoxy]methyl}-2,3-dihydro[1,3]oxazolo[3,2-a]benzimidazole], 7.92.
To `Clc1cccc(OC[C@@H]2Cn3c(nc4ccccc43)O2)c1` [Example 3-9, (2S)-2-[(3-chlorophenoxy)methyl]-2,3-dihydro[1,3]oxazolo[3,2-a]benzimidazole] belongs 7.43; to `c1ccc(OC[C@@H]2Cn3c(nc4ccccc43)O2)cc1` [Example 3-20, (2S)-2-(phenoxymethyl)-2,3-dihydro[1,3]oxazolo[3,2-a]benzimidazole, reference compound], 6.63.
The figure for `C[Si](C)(C)c1ccc(OC[C@@H]2Cn3c(nc4ccccc43)O2)cc1` [Example 4-1, (2S)-2-{[4-(trimethylsilyl)phenoxy]methyl}-2,3-dihydro[1,3]oxazolo[3,2-a]benzimidazole] is 7.57.

The record behind these values is patent US20110065669A1, “OXAZOLOBENZIMIDAZOLE DERIVATIVES” (Merck Sharp & Dohme Corp., priority 2008, published 2011).
